Here are results for 17 compounds from US9180115B2, “Cyclohexylamines” (Asana Biosciences, LLC, priority 2011, dated 2015).

Each structure is given as a SMILES string.

The test system of the test is sodium channel response in hTRPV1-N1E115 cells. Briefly: FLIPR membrane potential assay of sodium channel response in hTRPV1-N1E115 cells with or without heat (47° C.) activation. In kind it is cell-based. The conditions noted are these: for hTRPV1-N1E Nav 0.1 mM (% inhibition) 25° C. / hTRPV1-N1E Nav 1 mM (% inhibition) 25° C.: 25° C. (no heat activation); for IC50: read-out: hTRPV1-N1E IC50 (μM) 47° C.; for hTRPV1-N1E Nav 0.1 mM (% inhibition) 47° C. / hTRPV1-N1E Nav 1 mM (% inhibition) 47° C.: 47° C. (heat activated). From the text:
In one embodiment, a modified FLIPR® (Fluorometric Imaging Plate Reader) based assay system was developed which is capable of discriminating between non-specific versus hTRPV1-mediated entry of test compounds. Advantageously, the assay system utilizes heat activated opening of hTRPV1 channels followed by an assessment of internal sodium channel block. The assay allows a permanently charged compound to selectively enter through opened hTRPV1 channels and that compound's potency in inhibiting sodium channels from the cytoplasm side of the same cell can be assessed and quantified.
The test compounds are diluted in the Assay Buffer and added to each well of a specific 384-well ‘compound plate’, which serves as a source plate for compound addition using the FLIPR® platform. The concentration of compounds in the compound-plate was adjusted to achieve the desired final concentration when added to the cells in the ‘cell-plate’. After completion of the dye incubation period, the dye loaded cell-plates and the compound source plates are inserted into the FLIPR® Tetra device with a 384 FLIPR® tip box (Molecular Devices, Inc.) according to manufacturer's instructions. The compounds are robotically added to the dye loaded cell-plates using software integral to the FLIPR® Tetra instrument.
Immediately following compound addition, hTRPV1 is activated, in one of the duplicate cell plates, by heating. Specifically, entire multi-well plate containing the compound-cells mixture is incubated at 47° C. for 10 minutes, after which they are returned to room temperature (about 25° C.) for a further 30 minutes. Heat activation of hTRPV1 was omitted from the replicate cell plate which was simply maintained at room temperature for the entire 40 minutes.
A membrane potential response is elicited in the dye- and compound-loaded cells by the addition of veratridine which is a known sodium channel ‘agonist’. As illustrated in an example herein, an agonist plate containing veratridine (Sigma) is prepared in advance and is inserted into suitable devices such as, e.g., the FLIPR® TETRA device for a “2nd addition” as instructed by the manufacturer. The concentration of veratridine in the ‘agonist plate’ was adjusted to achieve a final concentration of 100 μM when added to the cells in the cell-plate. Final concentrations of veratridine greater or lesser than 100 μM may also be used but the signal measured by the FLIPR® TETRA device or another suitable device may vary accordingly.
The exposure of the cells in the cell-plate to veratridine induces sodium channels in the cells to open and the resulting ion flux produces a membrane potential depolarization that is detected as a fluorescence signal by the FLIPR® Tetra Device. The activity of test compounds is determined by their ability to attenuate the veratridine-induced fluorescence signal, the most promising compounds are those that show an enhanced activity in the heat-activated cell plate over the non-heat-activated cell plate. This differential activity reflects enhanced compound uptake via the heat activated and open hTRPV1 channels and rests on the fact that sodium channel block requires test compounds to act from the cytoplasmic side of the cell membrane.
In vitro assays were developed for assessing the inhibition of sodium channel response with compounds following stimulation by heat (47° C.) in cells expressing hTRPV1.
(v) Membrane potential Assay to Assess Sodium Channel Function in hTRPV1-Expressing Cells • Cells were plated at 5000 per 50 μL [DMEM+10% FBS+300 μg/mL H\hygromycin] per well, in a 384 clear bottom poly-D-lysine coated plate and incubated at 37° C. and 5% CO2 for 48 hours. On the day of the assay, media were discarded gently and 30 μL of the dye [FMP blue dye was prepared in assay buffer] per well was added and dye-loading was allowed to proceed for 20 min at room temperature. […]

`Cc1cc(C)c(C(=O)O[C@H](C)C[N+](C)(C)C2CCCCC2)c(C)c1.[I-]` [Example 25, (R)-N,N-Dimethyl-N-[2-((2,4,6-trimethylbenzoyl)oxy)propyl] cyclohexanaminium iodide]: the “hTRPV1-N1E Nav 0.1 mM (% inhibition) 25° C.” value is 48 (N = 4) % and the “hTRPV1-N1E Nav 1 mM (% inhibition) 25° C.” value is reported as 89 (N = 4) %. For the same compound, where the note is “47° C.”, the IC50 (as a rule, the point on the concentration scale where inhibition reaches its midpoint) lay within 10 to 100 µM.
Consider `CC(C[N+](C)(C)C1CCCCC1)OC(=O)c1cccs1.[I-]` (stereo not drawn) [Example 32, N,N-Dimethyl-N-[2-((thiophene-2-carbonyl)oxy)propyl] cyclohexanaminium iodide], for which the “hTRPV1-N1E Nav 0.1 mM (% inhibition) 25° C.” value is given as 4 (N = 4) %, the “hTRPV1-N1E Nav 0.1 mM (% inhibition) 47° C.” value is given as 48 (N = 4) %, the “hTRPV1-N1E Nav 1 mM (% inhibition) 25° C.” value is given as 1 (N = 4) % and the “hTRPV1-N1E Nav 1 mM (% inhibition) 47° C.” value is listed as 54 (N = 4) %.
As to `Cc1ccc(C(=O)OC(C)C[N+](C)(C)C2CCCCC2)c(C)c1.[I-]` (stereo not drawn) [Example 45, N-[2-((2,4-Dimethylbenzoyl)oxy)propyl]-N,N-dimethylcyclo-hexanaminium iodide], the “hTRPV1-N1E Nav 0.1 mM (% inhibition) 25° C.” value is listed as 4 (N = 4) %, the “hTRPV1-N1E Nav 0.1 mM (% inhibition) 47° C.” value was 72 (N = 4) %, the “hTRPV1-N1E Nav 1 mM (% inhibition) 25° C.” value was 46 (N = 4) % and the “hTRPV1-N1E Nav 1 mM (% inhibition) 47° C.” value was 83 (N = 4) %. Also, for the setting “47° C.”, the IC50 was 10 to 100 µM.
For `CC(C[N+](C)(C)C1CCCCC1)OC(=O)c1c(Cl)cccc1Cl.[I-]` (stereo not drawn) [Example 27, N-[2-((2,6-Dichlorobenzoyl)oxy)propyl]-N,N-dimethylcyclo-hexanaminium iodide] the same measures were 23 (N = 4) %, 73 (N = 4) %, 74 (N = 4) %, 85 (N = 4) % and 100 to 1000 µM.
For `Cc1ccc(C(=O)OC(C)C[N+](C)(C)C2CCCCC2)cc1.[I-]` (stereo not drawn) [Example 42, N,N-Dimethyl-N-[2-((4-methylbenzoyl)oxy)propyl] cyclohexanaminium iodide], in that order: 8 (N = 4) %, 45 (N = 4) %, 16 (N = 4) %, 90 (N = 4) % and 10 to 100 µM.
For `CC(C[N+](C)(C)C1CCCCC1)OC(=O)c1cccc(C(F)(F)F)c1.[I-]` (stereo not drawn) [Example 16, N,N-Dimethyl-N-[2-((3-(trifluoromethyl)benzoyl)oxy)propyl] cyclohexanaminium iodide], in that order: 31 (N = 4) %, 60 (N = 4) %, 50 (N = 4) %, 83 (N = 4) % and 100 to 1000 µM.
In the case of `Cc1cc(C)c(C(=O)OC(C)C[N+](C)(C)C2CCOCC2)c(C)c1.[I-]` (stereo not drawn) [Example 28, N,N-Dimethyl-N-[2-((2,4,6-trimethylbenzoyl)oxy)propyl]tetrahydro-2H-pyran-4-aminium iodide], the “hTRPV1-N1E Nav 0.1 mM (% inhibition) 25° C.” value is 0 (N = 4) %, the “hTRPV1-N1E Nav 0.1 mM (% inhibition) 47° C.” value is recorded as 32 (N = 4) %, the “hTRPV1-N1E Nav 1 mM (% inhibition) 25° C.” value is 5 (N = 4) % and the “hTRPV1-N1E Nav 1 mM (% inhibition) 47° C.” value was 58 (N = 4) %.
For the compound `CCc1ccc(C(=O)OC(C)C[N+](C)(C)C2CCCCC2)cc1.[I-]` (stereo not drawn) [Example 20, N-[2-((4-Ethylbenzoyl)oxy)propyl]-N,N-dimethyl-cyclohexanaminium iodide], the “hTRPV1-N1E Nav 0.1 mM (% inhibition) 25° C.” value is 14 (N = 4) %, the “hTRPV1-N1E Nav 0.1 mM (% inhibition) 47° C.” value is 77 (N = 4) %, the “hTRPV1-N1E Nav 1 mM (% inhibition) 25° C.” value was 46 (N = 4) % and the “hTRPV1-N1E Nav 1 mM (% inhibition) 47° C.” value is given as 95 (N = 4) %. Besides, the half-maximal inhibitory concentration (IC50) (47° C.) is 10 to 100 µM.
In the case of `CC(C[N+](C)(C)C1CCCCC1)OC(=O)c1cc2ccccc2s1.[I-]` (stereo not drawn) [Example 35, N-[2-((Benzo[b]thiophene-2-carbonyl)oxy)propyl]-N,N-dimethyl-cyclohexanaminium iodide], the “hTRPV1-N1E Nav 0.1 mM (% inhibition) 25° C.” value is 35 (N = 4) % and the “hTRPV1-N1E Nav 0.1 mM (% inhibition) 47° C.” value is on record as 74 (N = 4) %. Further, where the note is “47° C.”, the IC50 was 10 to 100 µM.
Take `CC(C[N+](C)(C)C1CCCCC1)OC(=O)c1cc(Cl)cc(Cl)c1.[I-]` (stereo not drawn) [Example 19, N-[2-((3,5-Dichlorobenzoyl)oxy)propyl]-N,N-dimethyl-cyclohexanaminium iodide]: the “hTRPV1-N1E Nav 0.1 mM (% inhibition) 25° C.” value is reported as 25 (N = 4) %, the “hTRPV1-N1E Nav 1 mM (% inhibition) 25° C.” value is recorded as 12 (N = 4) % and the “hTRPV1-N1E Nav 1 mM (% inhibition) 47° C.” value is recorded as 52 (N = 4) %. The half-maximal inhibitory concentration (IC50) (47° C.) fell in the range of 10 to 100 µM.
With `CC(C[N+](C)(C)C1CCCCC1)OC(=O)c1cccc(F)c1.[I-]` (stereo not drawn) [Example 14, N-[2-((3-Fluorobenzoyl)oxy)propyl]-N,N-dimethyl-cyclohexanaminium iodide], the “hTRPV1-N1E Nav 0.1 mM (% inhibition) 25° C.” value was 0 (N = 4) %, the “hTRPV1-N1E Nav 0.1 mM (% inhibition) 47° C.” value was 31 (N = 4) %, the “hTRPV1-N1E Nav 1 mM (% inhibition) 25° C.” value is 10 (N = 4) % and the “hTRPV1-N1E Nav 1 mM (% inhibition) 47° C.” value was 66 (N = 4) %.
With `CC[N+](CC)(CC(C)OC(=O)c1ccccc1)C1CCCCC1.[Cl-]` (stereo not drawn) [Example 3, N-[2-(benzoyloxy)propyl]-N,N-diethylcyclohexanaminium chloride], under “0.5 mM, 25° C.”, the “hTRPV1-N1E Nav (% inhibition) 25° C., 0.5 mM” value is 14 (N = 2, %. The “hTRPV1-N1E Nav (% inhibition) 47° C., 0.5 mM” value (0.5 mM, 47° C.) is given as 19 (N = 2, %. In addition, for the setting “5 mM, 25° C.”, the “hTRPV1-N1E Nav (% inhibition) 25° C., 5 mM” value is 52 (N = 2, %. Further, for the setting “5 mM, 47° C.”, the “hTRPV1-N1E Nav (% inhibition) 47° C., 5 mM” value is on record as 67 (N = 2, %.
As for `CC(C[N+](C)(C)C1CCCCC1)OC(=O)c1ccc(C(C)C)cc1.[I-]` (stereo not drawn) [Example 4, N-[2-((4-isopropylbenzoyl)oxy)propyl]-N,N-dimethylcyclohexanaminium iodide], the “hTRPV1-N1E Nav 0.1 mM (% inhibition) 25° C.” value was 24 (N = 4) % and the “hTRPV1-N1E Nav 0.1 mM (% inhibition) 47° C.” value is listed as 86 (N = 4) %. For the same compound, the IC50 (47° C.) fell in the range of 10 to 100 µM.
For the compound `Cc1cccc(C)c1C(=O)O[C@@H](C)C[N+](C)(C)C1CCCCC1.[I-]` [Example 23, (S)-N-[2-((2,6-Dimethylbenzoyl)oxy)propyl]-N,N-dimethyl-cyclohexanaminium iodide], the “hTRPV1-N1E Nav 0.1 mM (% inhibition) 25° C.” value is on record as 38 (N = 4) % and the “hTRPV1-N1E Nav 1 mM (% inhibition) 25° C.” value was 76 (N = 4) %. The IC50 (47° C.) was in the range of 10 to 100 µM.
In the case of `CC(C[N+](C)(C)C1CCCCC1)OC(=O)c1cccc(C(C)C)c1.[I-]` (stereo not drawn) [Example 26, N-[2-((3-Isopropylbenzoyl)oxy)propyl]-N,N-dimethylcyclo-hexanaminium iodide], the “hTRPV1-N1E Nav 0.1 mM (% inhibition) 25° C.” value is listed as 4 (N = 4) %, the “hTRPV1-N1E Nav 0.1 mM (% inhibition) 47° C.” value was 88 (N = 4) %, the “hTRPV1-N1E Nav 1 mM (% inhibition) 25° C.” value is listed as 57 (N = 4) % and the “hTRPV1-N1E Nav 1 mM (% inhibition) 47° C.” value is 89 (N = 4) %. In addition, where the note is “47° C.”, the IC50 is 10 to 100 µM.
As for `Cc1cc(C)c(C(=O)O[C@@H](C)C[N+](C)(C)C2CCCCC2)c(C)c1.[I-]` [Example 22, (S)-N,N-Dimethyl-N-[2-((2,4,6-trimethylbenzoyl)oxy)propyl] cyclohexanaminium iodide], the “hTRPV1-N1E Nav 0.1 mM (% inhibition) 25° C.” value is given as 33 (N = 4) % and the “hTRPV1-N1E Nav 1 mM (% inhibition) 25° C.” value is reported as 91 (N = 4) %. For the same compound, the IC50 (47° C.) lay in the range of 10 to 100 µM.
As to `CCc1ccccc1C(=O)OC(C)C[N+](C)(C)C1CCCCC1.[I-]` (stereo not drawn) [Example 44, N-[2-((2-Ethylbenzoyl)oxy)propyl]-N,N-dimethylcyclo-hexanaminium iodide], the “hTRPV1-N1E Nav 0.1 mM (% inhibition) 25° C.” value is listed as 56 (N = 4) %, the “hTRPV1-N1E Nav 0.1 mM (% inhibition) 47° C.” value was 89 (N = 4) %, the “hTRPV1-N1E Nav 1 mM (% inhibition) 25° C.” value is listed as 81 (N = 4) % and the “hTRPV1-N1E Nav 1 mM (% inhibition) 47° C.” value was 96 (N = 4) %.
